Read-outs that look alike come from different tables or passages of the source.
Tests used:
human DGKα = target: T1, human DGKα (Homo sapiens, UniProt P23743); test: DGKα LIPGLO assay (extruded liposome substrate), in vitro DGK inhibition; format: biochemical; details: liposome (LIPGLO) assay; read-out: DGKa LIPGLO IC50
T1 construct: TVMV protease cleavage site (C); Hexa-His (C); made in house; host or cells: Sf9 insect cells (baculovirus, Bac-to-Bac)

human DGKζ = target: T2, human DGKζ (Homo sapiens, UniProt Q13574); test: DGKζ LIPGLO assay (extruded liposome substrate), in vitro DGK inhibition; format: biochemical; details: liposome (LIPGLO) assay; read-out: DGKz LIPGLO IC50
T2 construct: TVMV protease cleavage site (C); Hexa-His (C); made in house; host or cells: Sf9 insect cells (baculovirus, Bac-to-Bac)

naïve human CD8 T cells = test: Human CD8 T cells IFN-γ assay; format: cell-based; details: normalized to 3 μM reference compound with anti-CD3 plus anti-CD28 as 100% activation, read-out: HuCD8 INFG Normalized EC50;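 further: Naïve human CD8 T cells stimulated with plate-bound anti-CD3 and soluble anti-CD28, IFN-γ in supernatant quantified by AlphaLISA and converted to pg/mL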
Human venous whole blood = test: Human whole blood IFN-γ assay; format: cell-based; details: human whole blood, normalized to 3 μM reference compound with anti-CD3 plus anti-CD28 as 100% activation, read-out: INFg Whole Blood Normalized Agonist EC50;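 further: blood from healthy donors exposed to compound for 1 h before stimulation with anti-CD3 and anti-CD28 at 1 µg/mL each, IFN-γ quantified in supernatant by AlphaLISA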
Protocol: Human Whole Blood IFN-γ Assay
Human venous whole blood (22.5 μL per well), obtained from healthy donors, was pre-treated with compounds for one hour at 37° C. in a humidified 95% air/5% CO2 incubator. The blood was stimulated with 2.5 μL anti-human CD3 and anti-CD28 mAb at a final concentration of 1 μg/mL each for 24 hours at 37° C. IFN-γ in the supernatants was measured using AlphLISA kit (Cat # AL217).

T2 sequence (Q13574 with tags, fused parts or gaps isoform Q13574-4): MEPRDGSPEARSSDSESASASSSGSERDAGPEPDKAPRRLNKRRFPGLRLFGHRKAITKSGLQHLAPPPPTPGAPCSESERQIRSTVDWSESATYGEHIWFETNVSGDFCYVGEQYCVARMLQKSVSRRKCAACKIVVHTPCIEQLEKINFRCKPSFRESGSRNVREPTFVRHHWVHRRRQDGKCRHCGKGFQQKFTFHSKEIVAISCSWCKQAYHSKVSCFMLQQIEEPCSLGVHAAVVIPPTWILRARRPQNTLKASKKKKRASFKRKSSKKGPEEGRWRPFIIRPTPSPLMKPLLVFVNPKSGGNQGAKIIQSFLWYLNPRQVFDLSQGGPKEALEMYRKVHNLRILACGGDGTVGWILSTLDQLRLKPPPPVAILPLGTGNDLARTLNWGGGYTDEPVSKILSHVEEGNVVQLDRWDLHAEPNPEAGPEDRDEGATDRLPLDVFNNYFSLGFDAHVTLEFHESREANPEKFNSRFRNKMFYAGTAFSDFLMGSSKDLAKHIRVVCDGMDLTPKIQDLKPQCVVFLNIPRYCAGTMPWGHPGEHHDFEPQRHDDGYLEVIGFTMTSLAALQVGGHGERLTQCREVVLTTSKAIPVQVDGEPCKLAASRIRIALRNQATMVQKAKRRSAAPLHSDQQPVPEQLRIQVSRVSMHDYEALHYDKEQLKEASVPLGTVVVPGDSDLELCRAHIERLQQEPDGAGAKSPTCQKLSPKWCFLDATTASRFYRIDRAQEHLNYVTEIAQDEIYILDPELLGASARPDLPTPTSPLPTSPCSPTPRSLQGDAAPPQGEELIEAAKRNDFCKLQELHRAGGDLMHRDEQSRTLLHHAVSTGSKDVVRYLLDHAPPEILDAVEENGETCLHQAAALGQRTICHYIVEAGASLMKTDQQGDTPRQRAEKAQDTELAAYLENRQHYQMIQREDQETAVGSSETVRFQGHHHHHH
T1 sequence (P23743 with tags, fused parts or gaps): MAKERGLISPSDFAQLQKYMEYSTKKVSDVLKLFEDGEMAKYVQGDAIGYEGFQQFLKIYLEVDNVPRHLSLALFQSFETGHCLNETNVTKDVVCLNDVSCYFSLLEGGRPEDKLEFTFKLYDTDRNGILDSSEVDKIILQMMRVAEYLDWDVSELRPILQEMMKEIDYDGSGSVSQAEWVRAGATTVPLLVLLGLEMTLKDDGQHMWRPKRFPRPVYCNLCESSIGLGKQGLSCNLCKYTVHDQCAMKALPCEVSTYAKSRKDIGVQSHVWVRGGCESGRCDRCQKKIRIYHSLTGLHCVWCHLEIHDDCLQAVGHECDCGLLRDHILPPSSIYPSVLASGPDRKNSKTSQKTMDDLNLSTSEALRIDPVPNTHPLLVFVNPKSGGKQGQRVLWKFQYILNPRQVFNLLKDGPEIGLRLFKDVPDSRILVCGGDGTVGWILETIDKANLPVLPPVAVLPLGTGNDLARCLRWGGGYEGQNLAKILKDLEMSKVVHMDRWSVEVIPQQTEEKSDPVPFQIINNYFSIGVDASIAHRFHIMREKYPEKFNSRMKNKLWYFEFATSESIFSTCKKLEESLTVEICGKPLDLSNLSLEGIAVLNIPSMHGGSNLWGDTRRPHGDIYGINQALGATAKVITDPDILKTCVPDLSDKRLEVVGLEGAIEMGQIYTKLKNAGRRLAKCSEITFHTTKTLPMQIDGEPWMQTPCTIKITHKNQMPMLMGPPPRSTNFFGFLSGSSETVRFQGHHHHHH

Structure (SMILES)	IC50 (human DGKα) [nM]	IC50 (human DGKζ) [nM]	EC50 (naïve human CD8 T cells; Homo sapiens, T-cell, 20 h) [nM]	EC50 (Human venous whole blood; Homo sapiens, 24 h) [nM]	EC50 (Human venous whole blood) [nM]	EC50 (naïve human CD8 T cells) [nM]
C[C@H]1CN(C(c2ccc(Cl)cc2)c2ccc(Cl)cc2)[C@H](CO)CN1c1cc(=O)n(C)c2ccc(C#N)nc12 [Example 1152]	7400	24000	10000	780	–	–
C[C@@H]1CN(c2cc(=O)n(C)c3ccc(C#N)nc23)[C@@H](C)CN1Cc1cc(F)cc(F)c1 [Example 290, 8-[(2S,5R)-4-[(3,5-difluorophenyl)methyl]-2,5-dimethylpiperazin-1-yl]-5-methyl-6-oxo-5,6-dihydro-1,5-naphthyridine-2-carbonitrile]	1700	3500	2000	7900	–	–
Cc1ccc(C(c2ccc(F)cc2)N2C[C@H](C)N(c3cc(=O)n(C)c4ccc(C#N)nc34)C[C@H]2C)cc1 (stereo partly drawn) [Example 295, 8-[(2S,5R)-4-[(4-fluorophenyl)(4-methylphenyl)methyl]-2,5-dimethylpiperazin-1-yl]-5-methyl-6-oxo-5,6-dihydro-1,5-naphthyridine-2-carbonitrile]	1800	1300	200	640	–	–
C[C@@H]1CN(c2cc(=O)n(C)c3ccc(C#N)nc23)[C@@H](C)CN1C(c1cccc(Cl)c1)c1cccc(Cl)c1 [Example 257, 8-[(2S,5R)-4-[bis(3-chlorophenyl)methyl]-2,5-dimethylpiperazin-1-yl]-5-methyl-6-oxo-5,6-dihydro-1,5-naphthyridine-2-carbonitrile]	25000	830	810	6200	–	–
C[C@@H]1CN(c2cc(=O)n(C)c3ccc(C#N)nc23)[C@@H](C)CN1C(c1ccc(F)cc1)c1cocn1 (single isomer, unassigned) [Example 710]	120	2600	22	–	550	–
CCc1cc(F)ccc1C(c1ccc(Cl)cc1)N1C[C@H](C)N(c2cc(=O)n(C)c3ccc(OC)nc23)C[C@H]1C (single isomer, unassigned) [Example 232]	240000	1700	–	–	20000	10000
COC(=O)C1CN(C(c2ccc(F)cc2)c2ccc(F)cc2)CCN1c1c(C#N)c(=O)n(C)c2ccc(C#N)nc12 (centres unmarked) [Example 114, Methyl 4-(bis(4-fluorophenyl)methyl)-1-(3,6-dicyano-1-methyl-2-oxo-1,2-dihydro-1,5-naphthyridin-4-yl)piperazine-2-carboxylate]	420	1600	57	490	–	–
C[C@@H]1CN(c2cc(=O)n(C)c3ccc(C#N)nc23)[C@@H](C)CN1C(c1ccc(F)cc1)c1ccc(C(F)F)cc1 (single isomer, unassigned) [Example 666]	720	2000	–	920	–	5.6
C[C@@H]1CN(c2cc(=O)n(C)c3ccc(C#N)nc23)[C@@H](C)CN1Cc1c(Cl)cccc1Cl [Example 263, 8-[(2S,5R)-4-[(2,6-dichlorophenyl)methyl]-2,5-dimethylpiperazin-1-yl]-5-methyl-6-oxo-5,6-dihydro-1,5-naphthyridine-2-carbonitrile]	6500	1700	610	6300	–	–
C[C@@H]1CN(c2cc(=O)n(C)c3ccc(C#N)nc23)[C@@H](C)CN1Cc1c(F)cccc1F [Example 271, 8-[(2S,5R)-4-[(2,6-difluorophenyl)methyl]-2,5-dimethylpiperazin-1-yl]-5-methyl-6-oxo-5,6-dihydro-1,5-naphthyridine-2-carbonitrile]	130	1900	550	1400	–	–
C[C@@H]1CN(c2cc(=O)n(C)c3ccc(C#N)nc23)[C@@H](C)CN1C(c1ccc(Cl)cc1)c1ccc(Cl)cn1 (single isomer, unassigned) [Example 202]	110	490	–	–	380	8.3

— US10669272B2, “Substituted naphthyridinone compounds useful as T cell activators” (BRISTOL-MYERS SQUIBB COMPANY, priority 2018, dated 2020)
